Source: paper PMC8597046, “Use of Mixture Dosing and Nonlinear Mixed Effect Modeling of Eight Environmental Contaminants in Rabbits to Improve Extrapolation Value of Toxicokinetic Data” (Environmental Health Perspectives, 2021)
Like-named read-outs stand apart in the source and are kept apart here.

Legend:
in vivo [1] = settings: female, rabbit, in vivo, iv
Summary of the method: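 Female New Zealand white rabbits received a compound mixture IV via ear-vein catheter; serum sampled sparsely (3 rabbits/time point) from 15 min to 28 d. Noncompartmental sparse-data analysis on mean profiles: linear-trapezoidal AUC, CL as dose/AUC0−inf, half-life from λZ, MRT and VSS.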

in vivo [2] = settings: female, rabbit, in vivo, po
Summary of the method: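 Female New Zealand white rabbits (10-wk, 2.37±0.14kg) got the compound mixture IV via ear-vein catheter or orally into the mouth; serum sampled 15 min to 28 d, 3 (or 6 at 30 min) rabbits per time. Sparse-data noncompartmental analysis gave AUC (linear trapezoidal), CL or CL_F, half-life and F.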

in vivo [3] = settings: female, New Zealand white (INRA 1777 line), rabbit, in vivo, po
Summary of the method: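 Female New Zealand white rabbits (INRA 1777 line, 2 wk old, n=16 treated, 16 vehicle controls) received an oral eight-compound mixture: loading plus maintenance dose, then daily maintenance dose for 17 wk. Dosing volume 1mL/kg adjusted weekly to predicted BW; serum obtained after clotting and centrifugation, stored at −20°C.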

[4] = rabbit, in vivo; cited from earlier work
[5] = New Zealand white (INRA 1777 line)
[6] = New Zealand white, Serum concentration
[7] = New Zealand white (INRA 1777 line), Serum concentration

SMILES: Clc1c(Cl)c(Cl)c(Cl)c(Cl)c1Cl [HCB, hexachlorobenzene]
- AUC(0-inf) (in vivo [1]; [5]): 4.52 µM·h
- Cmax (in vivo [1]; [5]): 19 nM
- MRT (in vivo [1]; [5]): 23 days
- clearance (in vivo [1]; [5]): 0.85 mL/min/kg
- half-life (in vivo [1]; [5]): 17.2 days
- Vd (in vivo [1]; New Zealand white (INRA 1777 line), VSS): 28.1 L/kg
- Vd (in vivo [1]; New Zealand white (INRA 1777 line), VZ): 30.5 L/kg
- Serum concentration (in vivo [1]; New Zealand white, 24 h): 7.1 nM
- Serum concentration (in vivo [1]; New Zealand white, 168 h): 6.4 nM
- concentration at 0.6 h (in vivo [1]; [6]): 11 nM
- concentration at 0.67 h (in vivo [1]; [6]): 19 nM
- concentration at 0.77 h (in vivo [1]; [6]): 15 nM
- concentration at 24 h (in vivo [1]; [6]): 8.2 nM
- concentration at 24.03 h (in vivo [1]; [6]): 6.1 nM
- concentration at 71.97 h (in vivo [1]; [6]): 4.2 nM
- concentration at 72 h (in vivo [1]; [6]): 5.8 nM
- concentration at 72.03 h (in vivo [1]; [6]): 6.5 nM
- concentration at 167.92 h (in vivo [1]; [6]): 4.1 nM
- concentration at 168 h (in vivo [1]; [6]): 5.2 nM
- concentration at 671.83 h (in vivo [1]; [6]): 2.7 nM
- concentration at 671.96 h (in vivo [1]; [6]): 2.3 nM
- AUC(0-inf) (in vivo [2]; [5]): 340 µM·h
- CL/F (in vivo [2]; [5]): 1.33 mL/min/kg
- Cmax (in vivo [2]; [5]): 505 nM
- MRT (in vivo [2]; [5]): 46.5 days
- Tmax (in vivo [2]; [5]): 1 days
- Vd/F (in vivo [2]; [5]): 95 L/kg
- bioavailability (in vivo [2]; [5]): 64%
- half-life (in vivo [2]; [5]): 34 days
- Serum concentration (in vivo [2]; New Zealand white (INRA 1777 line), 24 h): 370 nM
- concentration at 0.57 h (in vivo [2]; [7]): 66 nM
- concentration at 23.98 h (in vivo [2]; [7]): 370 nM
- concentration at 24 h (in vivo [2]; [7]): 640 nM
- concentration at 168 h (in vivo [2]; [7]): 290 nM
- concentration at 671.96 h (in vivo [2]; [7]): 160 nM
- Serum concentration (in vivo [2]; New Zealand white, 72 h): 400 nM
- concentration at 71.96 h (in vivo [2]; [6]): 490 nM
- concentration at 72 h (in vivo [2]; [6]): 220 nM
- concentration at 168 h (in vivo [2]; [6]): 240 nM
- concentration at 168.02 h (in vivo [2]; [6]): 240 nM
- concentration at 17 wk (in vivo [3]): 2.9 ± 1.5 ng/mL
- half-life [4]: 32 days
